In assay [1] the target is T1, Serine/threonine-protein kinase Chk1 (Homo sapiens, UniProt O14757).
T1 sequence (O14757 whole entry): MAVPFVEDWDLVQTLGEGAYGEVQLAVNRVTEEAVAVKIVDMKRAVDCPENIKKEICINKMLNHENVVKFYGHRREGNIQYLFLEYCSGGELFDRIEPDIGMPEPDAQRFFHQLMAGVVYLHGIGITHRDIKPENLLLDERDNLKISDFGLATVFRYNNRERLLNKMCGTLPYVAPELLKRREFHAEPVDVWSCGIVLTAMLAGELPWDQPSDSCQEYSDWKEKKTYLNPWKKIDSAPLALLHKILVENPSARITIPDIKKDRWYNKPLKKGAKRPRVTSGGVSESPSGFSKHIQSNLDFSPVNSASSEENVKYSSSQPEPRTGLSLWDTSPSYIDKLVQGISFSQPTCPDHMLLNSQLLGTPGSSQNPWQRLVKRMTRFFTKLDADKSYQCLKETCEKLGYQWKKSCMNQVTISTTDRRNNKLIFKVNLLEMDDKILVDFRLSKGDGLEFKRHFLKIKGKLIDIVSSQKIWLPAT

The target in a further assay is LIM domain kinase 1 (Homo sapiens, UniProt P53667).
Assay [2] concerns the target T2, Serine/threonine-protein kinase Nek1 (Homo sapiens, UniProt Q96PY6).
T2 sequence (Q96PY6 whole entry): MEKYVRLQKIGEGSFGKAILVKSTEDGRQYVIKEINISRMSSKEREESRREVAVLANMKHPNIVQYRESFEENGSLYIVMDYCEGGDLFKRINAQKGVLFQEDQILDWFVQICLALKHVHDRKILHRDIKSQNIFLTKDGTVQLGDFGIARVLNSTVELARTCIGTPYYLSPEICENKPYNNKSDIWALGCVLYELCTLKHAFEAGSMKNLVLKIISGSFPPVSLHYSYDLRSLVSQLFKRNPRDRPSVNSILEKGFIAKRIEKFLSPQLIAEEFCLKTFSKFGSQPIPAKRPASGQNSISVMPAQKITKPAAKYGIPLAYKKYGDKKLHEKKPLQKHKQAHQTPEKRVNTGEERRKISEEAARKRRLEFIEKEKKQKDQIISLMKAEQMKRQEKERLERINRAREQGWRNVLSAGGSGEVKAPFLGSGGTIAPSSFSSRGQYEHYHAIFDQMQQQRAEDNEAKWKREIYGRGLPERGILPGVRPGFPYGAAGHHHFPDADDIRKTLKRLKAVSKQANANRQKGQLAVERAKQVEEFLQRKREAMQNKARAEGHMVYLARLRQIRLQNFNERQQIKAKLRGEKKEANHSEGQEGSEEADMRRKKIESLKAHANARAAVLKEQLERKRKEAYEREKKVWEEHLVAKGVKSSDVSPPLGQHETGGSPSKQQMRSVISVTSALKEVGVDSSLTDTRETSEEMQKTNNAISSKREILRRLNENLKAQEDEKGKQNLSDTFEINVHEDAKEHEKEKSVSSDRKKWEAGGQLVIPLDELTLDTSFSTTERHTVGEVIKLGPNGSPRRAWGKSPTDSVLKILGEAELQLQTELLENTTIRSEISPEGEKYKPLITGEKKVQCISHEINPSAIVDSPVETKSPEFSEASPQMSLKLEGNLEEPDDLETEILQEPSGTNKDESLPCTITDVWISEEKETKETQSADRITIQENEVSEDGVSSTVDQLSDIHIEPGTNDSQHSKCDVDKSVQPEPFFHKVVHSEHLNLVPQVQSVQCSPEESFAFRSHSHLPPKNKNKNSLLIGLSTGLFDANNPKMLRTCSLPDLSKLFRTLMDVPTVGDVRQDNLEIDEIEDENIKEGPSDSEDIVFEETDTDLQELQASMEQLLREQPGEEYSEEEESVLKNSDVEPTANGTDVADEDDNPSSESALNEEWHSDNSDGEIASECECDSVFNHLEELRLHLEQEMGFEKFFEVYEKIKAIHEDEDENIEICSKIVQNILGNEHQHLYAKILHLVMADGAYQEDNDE

Assay [3] deals with T3, Serine/threonine-protein kinase 3 (Homo sapiens, UniProt Q13188).
T3 sequence (Q13188 whole entry): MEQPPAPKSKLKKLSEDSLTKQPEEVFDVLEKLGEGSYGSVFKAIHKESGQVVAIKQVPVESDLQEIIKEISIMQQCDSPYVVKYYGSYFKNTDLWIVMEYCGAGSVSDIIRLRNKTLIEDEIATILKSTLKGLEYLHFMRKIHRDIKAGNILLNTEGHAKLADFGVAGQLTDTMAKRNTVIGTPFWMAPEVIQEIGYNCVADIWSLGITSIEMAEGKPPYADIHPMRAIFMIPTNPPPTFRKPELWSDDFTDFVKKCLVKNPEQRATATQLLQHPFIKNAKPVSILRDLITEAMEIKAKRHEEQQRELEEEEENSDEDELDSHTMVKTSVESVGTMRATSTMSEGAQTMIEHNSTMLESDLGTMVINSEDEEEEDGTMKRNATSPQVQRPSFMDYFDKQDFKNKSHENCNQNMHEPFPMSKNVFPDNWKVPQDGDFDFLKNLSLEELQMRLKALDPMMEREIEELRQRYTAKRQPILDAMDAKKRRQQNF

Assay [4] deals with T4, Tyrosine-protein kinase Tec (Homo sapiens, UniProt P42680).
T4 sequence (P42680 whole entry): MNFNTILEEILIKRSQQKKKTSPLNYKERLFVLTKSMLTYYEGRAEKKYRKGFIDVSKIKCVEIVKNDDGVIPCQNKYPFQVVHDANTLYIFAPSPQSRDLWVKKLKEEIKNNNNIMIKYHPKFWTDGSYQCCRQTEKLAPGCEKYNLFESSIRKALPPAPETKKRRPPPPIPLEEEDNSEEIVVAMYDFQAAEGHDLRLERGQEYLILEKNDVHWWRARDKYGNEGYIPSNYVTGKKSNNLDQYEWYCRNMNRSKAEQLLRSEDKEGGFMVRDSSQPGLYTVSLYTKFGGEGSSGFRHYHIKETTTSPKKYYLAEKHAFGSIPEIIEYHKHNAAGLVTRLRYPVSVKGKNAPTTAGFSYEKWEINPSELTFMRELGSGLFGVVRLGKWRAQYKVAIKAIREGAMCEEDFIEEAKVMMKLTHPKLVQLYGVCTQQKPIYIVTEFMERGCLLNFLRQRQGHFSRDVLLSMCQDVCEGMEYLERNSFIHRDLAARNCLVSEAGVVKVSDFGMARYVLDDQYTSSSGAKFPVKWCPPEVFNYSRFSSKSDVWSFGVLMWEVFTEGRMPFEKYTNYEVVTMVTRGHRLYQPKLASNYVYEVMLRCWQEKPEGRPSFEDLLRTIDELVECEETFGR

Active and inactive are the calls of the source. Cut-off read from the data, not from the text of the source, for most assays here: actives have a measured Kd and inactives only a lower limit.
Note: in the data inactive means no Kd found up to 30 µM.

Chain of LIM domain kinase 1 (P53667 whole entry, the tested form may be a part): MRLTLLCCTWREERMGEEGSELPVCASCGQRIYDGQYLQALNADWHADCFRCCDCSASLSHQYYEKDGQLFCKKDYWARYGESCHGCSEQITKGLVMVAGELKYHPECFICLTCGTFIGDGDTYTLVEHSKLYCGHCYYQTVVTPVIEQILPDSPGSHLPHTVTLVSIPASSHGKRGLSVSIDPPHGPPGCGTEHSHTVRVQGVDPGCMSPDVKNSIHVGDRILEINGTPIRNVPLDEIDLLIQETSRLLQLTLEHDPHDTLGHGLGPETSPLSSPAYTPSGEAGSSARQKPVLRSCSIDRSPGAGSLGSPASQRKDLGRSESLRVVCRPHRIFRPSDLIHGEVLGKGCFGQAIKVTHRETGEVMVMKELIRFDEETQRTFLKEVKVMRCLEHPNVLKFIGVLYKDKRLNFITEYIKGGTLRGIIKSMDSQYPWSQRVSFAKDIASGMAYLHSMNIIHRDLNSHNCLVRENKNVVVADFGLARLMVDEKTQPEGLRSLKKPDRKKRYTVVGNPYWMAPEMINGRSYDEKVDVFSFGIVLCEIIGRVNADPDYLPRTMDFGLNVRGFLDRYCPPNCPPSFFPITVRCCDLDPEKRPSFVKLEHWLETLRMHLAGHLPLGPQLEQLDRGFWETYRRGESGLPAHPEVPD

As for `Cc1ccc(-n2nc(C(C)(C)C)cc2NC(=O)NCc2cc(F)ccc2Oc2ccc3c(cnn3CCO)c2)cc1` [PEXMETINIB], the Kd (in assay [1]; at LIM domain kinase 1; in assay [2]; in assay [3]; in assay [4]) was > 30 µM (inactive) each time.
With `Cc1c(F)cc(C(=O)NC2CC2)cc1-c1ccc(C(=O)NCC(C)(C)C)cn1` [LOSMAPIMOD], the Kd (in assay [1]; at LIM domain kinase 1; in assay [2]; in assay [3]; in assay [4]) was > 30 µM (inactive) each time.
For `COc1cc(N2CCC(N3CCN(C)CC3)CC2)ccc1Nc1ncnc(Nc2ccccc2S(=O)(=O)C(C)C)n1` [ASP-3026], the Kd (as a rule, the equilibrium constant for the complex coming apart) in assay [1] is > 30 µM (inactive); at LIM domain kinase 1 it was 3.98 µM (active); in assay [2], > 30 µM (inactive); in assay [3], > 30 µM (inactive); in assay [4], 1.02 µM (active).
For the compound `CNC(=O)c1ccc(-c2cnc3ncc(Cc4ccc5ncccc5c4)n3n2)cc1F` [CAPMATINIB], the Kd (in assay [1]; at LIM domain kinase 1; in assay [2]; in assay [3]; in assay [4]) was > 30 µM (inactive) in each case.
Turning to `CNC(=O)c1ccc(C)c(-n2c(C)cc(OCc3ccc(F)cc3F)c(Br)c2=O)c1` [PH-797804], the Kd (in assay [1]; at LIM domain kinase 1; in assay [2]; in assay [3]; in assay [4]) was > 30 µM (inactive) throughout.
On to `C[C@@H](Nc1cc(F)cc(F)c1)c1cc(C(=O)N(C)C)cc2c(=O)cc(N3CCOCC3)oc12` [AZD-8186], for which the Kd (in assay [1]; on LIM domain kinase 1; in assay [2]; in assay [3]; in assay [4]) was > 30 µM (inactive) in each case.
As for `C[C@@H](c1ccc2nccn2c1)n1nnc2ncc(-c3cnn(C)c3)nc21` [SAVOLITINIB], the Kd (in assay [1]; on LIM domain kinase 1; in assay [2]; in assay [3]; in assay [4]) was > 30 µM (inactive) throughout.
As to `CNC(=O)c1cc(Oc2ccc(NC(=O)Nc3ccc(Cl)c(C(F)(F)F)c3)c(F)c2)ccn1` [REGORAFENIB], the Kd in assay [1] was > 30 µM (inactive); at LIM domain kinase 1, 0.616 µM (active); in assay [2] it was > 30 µM (inactive); in assay [3] it was > 30 µM (inactive); in assay [4], > 30 µM (inactive).
As for `COc1cc2nccc(Oc3ccc(NC(=O)Nc4cc(C)on4)c(Cl)c3)c2cc1OC` [TIVOZANIB], the Kd (in assay [1]; at LIM domain kinase 1; in assay [2]; in assay [3]; in assay [4]) was > 30 µM (inactive) in each case.
Regarding `CCCS(=O)(=O)Nc1ccc(F)c(C(=O)c2c[nH]c3ncc(-c4ccc(Cl)cc4)cc23)c1F` [VEMURAFENIB], the Kd (in assay [1]; on LIM domain kinase 1; in assay [2]; in assay [3]; in assay [4]) was > 30 µM (inactive) throughout.
As to `N[C@@H]1CCCN(c2c(/C=C3\SC(=O)NC3=O)cccc2-c2ccccc2)C1`, the Kd (in assay [1]; on LIM domain kinase 1; in assay [2]; in assay [3]; in assay [4]) was > 30 µM (inactive) in each case.
Consider `O=C(O)[C@]1(Cc2cccc(Nc3nccs3)n2)CC[C@@H](Oc2cccc(Cl)c2F)CC1` [MK-5108], for which the Kd in assay [1] is > 30 µM (inactive); on LIM domain kinase 1, 5.09 µM (active); in assay [2] it was > 30 µM (inactive); in assay [3], 2.27 µM (active); in assay [4], 0.707 µM (active).
On to `COc1cc(OC)c(/C=C/S(=O)(=O)Cc2ccc(OC)c(NCC(=O)O)c2)c(OC)c1` [RIGOSERTIB], for which the Kd (in assay [1]; on LIM domain kinase 1; in assay [2]; in assay [3]; in assay [4]) was > 30 µM (inactive) throughout.
With `CC[C@@H]1C(=O)N(C)c2cnc(Nc3ccc(C(=O)N[C@H]4CC[C@H](N5CCN(CC6CC6)CC5)CC4)cc3OC)nc2N1C(C)C` [VOLASERTIB], the Kd (in assay [1]; at LIM domain kinase 1; in assay [2]; in assay [3]; in assay [4]) was > 30 µM (inactive) in each case.
For `Cc1cc(-c2cc(O)ccc2Cl)cc2nnc(Nc3ccc(OCCN4CCCC4)cc3)nc12`, the Kd (in assay [1]; on LIM domain kinase 1; in assay [2]; in assay [3]; in assay [4]) was > 30 µM (inactive) throughout.
As to `CCn1c(=O)c(-c2cc[nH]n2)cc2c(C)nc(N)nc21` [VOXTALISIB], the Kd (in assay [1]; on LIM domain kinase 1; in assay [2]; in assay [3]; in assay [4]) was > 30 µM (inactive) each time.
Consider `Cn1ncc(Cl)c1-c1cc(C(=O)N[C@H](CN)Cc2cccc(F)c2)sc1Cl` [AFURESERTIB], for which the Kd (in assay [1]; on LIM domain kinase 1; in assay [2]; in assay [3]; in assay [4]) was > 30 µM (inactive) throughout.

These data come from ChEMBL document CHEMBL3991601, “The target landscape of clinical kinase drugs” (Science, 2017).
